Laboratory results reported in patent US10799605B2 (3B PHARMACEUTICALS GMBH, priority 2014, dated 2020).

How the values were obtained:
[1] = molecular target: 5-HT3 (h) (Homo sapiens (Human), UniProt P46098); experiment: ExpresSProfile: 5-hydroxytryptamine channel 3, antagonist radioligand; type: binding; settings: Reference Compound
[2] = molecular target: CXCR2 (IL-8B) (h) (Homo sapiens (Human), UniProt P25025); experiment: ExpresSProfile: C-X-C chemokine receptor type 2, agonist radioligand; type: binding; settings: Reference Compound
[3] = molecular target: D2S (h) (Homo sapiens (Human), UniProt P14416); experiment: ExpresSProfile: dopamine receptor 2S, antagonist radioligand; type: binding
[4] = tested on: BZD (central); experiment: ExpresSProfile: benzodiazepine, agonist radioligand; type: binding; settings: Reference Compound
[5] = molecular target: M2 (h) (Homo sapiens (Human), UniProt P08172); experiment: ExpresSProfile: muscarinic receptor 2, antagonist radioligand; type: binding; settings: Reference Compound
[6] = molecular target: mu (MOP) (h) (Homo sapiens (Human), UniProt P35372); experiment: ExpresSProfile: mu opioid receptor, agonist radioligand; type: binding; settings: Reference Compound
[7] = molecular target: M3 (h) (Homo sapiens (Human), UniProt P20309); experiment: ExpresSProfile: muscarinic receptor 3, antagonist radioligand; type: binding; settings: Reference Compound
[8] = molecular target: NK3 (h) (Homo sapiens (Human), UniProt P29371); experiment: ExpresSProfile: neurokinin receptor 3, antagonist radioligand; type: binding; settings: Reference Compound
[9] = molecular target: 5-HT6 (h) (Homo sapiens (Human), UniProt P50406); experiment: ExpresSProfile: 5-hydroxytryptamine receptor 6, agonist radioligand; type: binding; settings: Reference Compound
[10] = molecular target: 5-HT1B (Rattus norvegicus, UniProt P28564); experiment: ExpresSProfile: 5-hydroxytryptamine receptor 1B, antagonist radioligand; type: binding; settings: Reference Compound
[11] = molecular target: MT1 (ML1A) (h) (Homo sapiens (Human), UniProt P48039); experiment: ExpresSProfile: melatonin receptor 1, agonist radioligand; type: binding; settings: Reference Compound
[12] = molecular target: AT1 (h) (Homo sapiens (Human), UniProt P30556); experiment: ExpresSProfile: angiotensin receptor 1, antagonist radioligand; type: binding; settings: Reference Compound
[13] = tested on: SKCa channel; experiment: ExpresSProfile: SKCa channel, antagonist radioligand; type: binding; settings: Reference Compound
[14] = tested on: Cl-channel (GABA-gated); experiment: ExpresSProfile: Cl-channel, antagonist radioligand; type: binding; settings: Reference Compound
[15] = molecular target: B2 (h) (Homo sapiens (Human), UniProt P30411); experiment: ExpresSProfile: bradykinin receptor 2, agonist radioligand; type: binding; settings: Reference Compound
[16] = molecular target: CB1 (h) (Homo sapiens (Human), UniProt P21554); experiment: ExpresSProfile: cannabinoid receptor 1, agonist radioligand; type: binding; settings: Reference Compound
[17] = molecular target: T1, NTR1 (Homo sapiens (Human), UniProt P30989); experiment: Functional Ca2+ mobilisation assay (example part II); type: cell-based; settings: antagonist assay
Excerpt: Ca^2+ ions are usually kept at nanomolar levels in the cytosol of cells, and act in a number of signal transduction pathways as second messengers. […] Changes in calcium ion concentration in standard assay protocols can be readily detected with fluorescent dyes that emit light when changes in intracellular Ca2^+ ion concentration occur. Given the transient nature of these responses, they are often read with instrumentation that has ‘inject and read’ capability.
HT29 or NTR1-expressing HEK293 cells were trypsinized and seeded into black flat clear-bottom 96-well plates (Corning, Amsterdam, The Netherlands) at 6×10^5 cells per well. After 24 h incubation at 37° C. and 5% CO2, cells were washed twice with wash buffer (130 mM NaCl, 5 mM KCl, 10 mM Hepes, 2 mM CaCl2, 10 mM Glucose, pH 7.4) and loaded with 100 μl of Ca5 dye (Molecular Devices, Biberach, Germany) for 1 h at 37° C. and 5% CO2. For agonist assays, serial dilutions of agonistic substances were added to the cells loaded with dye and the change of the fluorescent signal was recorded continually for approx. 90 s using a FlexStation II (Molecular Devices, Biberach, Germany). Addition of wash buffer served as a control. Thus, EC50 concentrations for each compound were computed and provided a measure for the potency of the substance. For antagonist assays, cells loaded with 100 μl of Ca5-dye were pre-incubated with serial dilutions of antagonistic substances for 30 min, before the EC80-concentration of agonist was added to the cells and the change of the fluorescent signal was recorded continually for approx. 90 s. Thus, IC50 concentrations were computed for each compound and provided a measure for the inhibitory activity of the compounds at the NTR1.

[18] = molecular target: T1, NTR1; experiment: Radioligand binding assay NTR1 (example part II); settings: 0.05 nM 125I-(Tyr3-neurotensin), 60 min at 4° C.; read-out: IC50 [nM] RLB
Description: In order to determine the binding affinity of compounds comprising a radiolabel for NTR1, a radioligand binding assay was carried out. A radioligand is a radioactive biochemical substance that is used for diagnosis or for research-oriented study of cellular receptor systems of the body. In […] systems it is often used to quantify the binding of a test molecule to the binding site of radioligand. The higher the affinity of the molecule, the more radioligand is displaced from the binding site. The amount of bound radioligand can be measured by scintillation counting and thereby quantified. This assay is commonly used to calculate binding constants of molecules to receptors.
The NTR1 radioligand binding assay was performed by Cerep (Celle l'Evescault, France; Catalog reference 0109) according to Vita et al., FEBS Lett., 1993, 317, 139-142. NTR1 was prepared from CHO cells recombinantly expressing the human receptor and incubated with 0.05 nM ^125I-(Tyr^3-neurotensin) and serial dilutions of the test compounds. […] The result for each test compound is expressed as IC50 concentration and provides a measure for the affinity of the test compound for NTR1.

[19] = tested on: sst (non-selective); experiment: ExpresSProfile: somatostatin receptor, agonist radioligand; type: binding; settings: Reference Compound
[20] = tested on: alpha 2 (non-selective); experiment: ExpresSProfile: alpha2 adrenergic receptor, antagonist radioligand; type: binding; settings: Reference Compound
[21] = molecular target: 5-HT2A (h) (Homo sapiens (Human), UniProt P28223); experiment: ExpresSProfile: 5-hydroxytryptamine receptor 2A, antagonist radioligand; type: binding; settings: Reference Compound
[22] = tested on: alpha 1 (non-selective); experiment: ExpresSProfile: alpha1 adrenergic receptor, antagonist radioligand; type: binding; settings: Reference Compound
[23] = molecular target: 5-HT2B (h) (Homo sapiens (Human), UniProt P41595); experiment: ExpresSProfile: 5-hydroxytryptamine receptor 2B, agonist radioligand; type: binding; settings: Reference Compound
[24] = tested on: KV channel; experiment: ExpresSProfile: KV channel, antagonist radioligand; type: binding; settings: Reference Compound
[25] = molecular target: EP4 (h) (Homo sapiens (Human), UniProt P35408); experiment: ExpresSProfile: prostaglandin e receptor type 4, agonist radioligand; type: binding; settings: Reference Compound
[26] = molecular target: D1 (h) (Homo sapiens (Human), UniProt P21728); experiment: ExpresSProfile: dopamine receptor 1, antagonist radioligand; type: binding; settings: Reference Compound
[27] = molecular target: dopamine transporter (h) (Homo sapiens (Human), UniProt Q01959); experiment: ExpresSProfile: dopamine transporter, antagonist radioligand; type: binding; settings: Reference Compound
[28] = tested on: GABA (non-selective); experiment: ExpresSProfile: GABA, agonist radioligand; type: binding; settings: Reference Compound
[29] = molecular target: NK2 (h) (Homo sapiens (Human), UniProt P21452); experiment: ExpresSProfile: neurokinin receptor 2, agonist radioligand; type: binding; settings: Reference Compound
[30] = molecular target: beta 1 (h) (Homo sapiens (Human), UniProt P08588); experiment: ExpresSProfile: beta1 adrenergic receptor, agonist radioligand; type: binding; settings: Reference Compound

T1 sequence (P30989 whole entry): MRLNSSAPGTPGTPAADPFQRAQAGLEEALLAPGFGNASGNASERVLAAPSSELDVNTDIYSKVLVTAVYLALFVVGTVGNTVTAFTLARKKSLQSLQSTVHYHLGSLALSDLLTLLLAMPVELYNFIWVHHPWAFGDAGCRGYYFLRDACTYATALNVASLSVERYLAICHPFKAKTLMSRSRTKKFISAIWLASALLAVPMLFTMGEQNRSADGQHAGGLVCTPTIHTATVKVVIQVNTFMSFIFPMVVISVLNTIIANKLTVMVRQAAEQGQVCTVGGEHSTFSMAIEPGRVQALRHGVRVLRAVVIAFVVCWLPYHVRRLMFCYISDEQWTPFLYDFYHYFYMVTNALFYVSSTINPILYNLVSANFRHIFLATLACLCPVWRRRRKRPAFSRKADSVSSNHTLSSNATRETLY
5-HT2B (h), sequence (P41595 whole entry): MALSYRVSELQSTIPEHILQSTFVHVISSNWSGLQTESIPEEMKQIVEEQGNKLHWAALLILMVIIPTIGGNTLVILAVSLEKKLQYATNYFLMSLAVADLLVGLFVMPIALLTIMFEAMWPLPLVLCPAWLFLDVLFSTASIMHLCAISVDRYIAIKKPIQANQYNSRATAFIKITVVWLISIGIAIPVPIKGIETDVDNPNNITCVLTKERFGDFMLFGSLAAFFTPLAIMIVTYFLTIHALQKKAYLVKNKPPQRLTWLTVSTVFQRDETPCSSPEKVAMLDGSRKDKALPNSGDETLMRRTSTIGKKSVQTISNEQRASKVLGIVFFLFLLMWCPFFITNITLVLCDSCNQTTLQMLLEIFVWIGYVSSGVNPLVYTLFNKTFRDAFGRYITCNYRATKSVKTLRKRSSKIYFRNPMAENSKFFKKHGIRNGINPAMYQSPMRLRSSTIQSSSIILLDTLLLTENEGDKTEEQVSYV
NK3 (h), sequence (P29371 whole entry): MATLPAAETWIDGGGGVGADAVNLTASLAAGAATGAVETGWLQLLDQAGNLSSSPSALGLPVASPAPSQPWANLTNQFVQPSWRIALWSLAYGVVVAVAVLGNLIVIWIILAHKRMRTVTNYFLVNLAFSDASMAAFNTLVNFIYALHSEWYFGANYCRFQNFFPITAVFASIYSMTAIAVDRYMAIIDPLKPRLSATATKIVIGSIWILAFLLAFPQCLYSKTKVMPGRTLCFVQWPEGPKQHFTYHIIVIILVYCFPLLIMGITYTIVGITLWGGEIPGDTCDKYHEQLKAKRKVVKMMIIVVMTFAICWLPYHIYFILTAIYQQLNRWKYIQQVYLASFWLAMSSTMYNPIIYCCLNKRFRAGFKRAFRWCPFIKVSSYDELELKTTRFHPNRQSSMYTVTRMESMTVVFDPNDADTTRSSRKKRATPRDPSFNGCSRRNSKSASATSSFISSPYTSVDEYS
5-HT6 (h), sequence (P50406 whole entry): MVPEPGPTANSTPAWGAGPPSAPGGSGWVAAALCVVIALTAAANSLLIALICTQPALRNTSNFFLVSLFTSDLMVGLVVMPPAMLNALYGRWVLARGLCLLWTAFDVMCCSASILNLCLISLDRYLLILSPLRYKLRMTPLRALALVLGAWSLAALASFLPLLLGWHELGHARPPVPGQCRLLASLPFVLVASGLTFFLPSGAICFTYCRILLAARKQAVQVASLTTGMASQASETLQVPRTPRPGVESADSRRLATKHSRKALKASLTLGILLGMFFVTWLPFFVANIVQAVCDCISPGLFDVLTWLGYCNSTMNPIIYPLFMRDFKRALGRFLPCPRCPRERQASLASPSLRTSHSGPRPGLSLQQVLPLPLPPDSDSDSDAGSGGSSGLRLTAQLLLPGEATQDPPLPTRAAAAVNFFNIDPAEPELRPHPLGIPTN
mu (MOP) (h), sequence (P35372 whole entry): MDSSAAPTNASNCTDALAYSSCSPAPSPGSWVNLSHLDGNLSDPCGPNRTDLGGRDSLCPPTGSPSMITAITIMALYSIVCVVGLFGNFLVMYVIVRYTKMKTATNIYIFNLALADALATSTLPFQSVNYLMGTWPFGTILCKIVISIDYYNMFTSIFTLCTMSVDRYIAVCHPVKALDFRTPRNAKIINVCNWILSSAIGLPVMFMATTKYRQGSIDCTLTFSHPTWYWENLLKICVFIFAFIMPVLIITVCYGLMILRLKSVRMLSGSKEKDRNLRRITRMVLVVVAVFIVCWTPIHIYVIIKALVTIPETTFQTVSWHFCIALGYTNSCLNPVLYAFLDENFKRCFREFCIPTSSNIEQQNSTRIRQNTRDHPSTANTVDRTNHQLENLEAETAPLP
dopamine transporter (h), sequence (Q01959 whole entry): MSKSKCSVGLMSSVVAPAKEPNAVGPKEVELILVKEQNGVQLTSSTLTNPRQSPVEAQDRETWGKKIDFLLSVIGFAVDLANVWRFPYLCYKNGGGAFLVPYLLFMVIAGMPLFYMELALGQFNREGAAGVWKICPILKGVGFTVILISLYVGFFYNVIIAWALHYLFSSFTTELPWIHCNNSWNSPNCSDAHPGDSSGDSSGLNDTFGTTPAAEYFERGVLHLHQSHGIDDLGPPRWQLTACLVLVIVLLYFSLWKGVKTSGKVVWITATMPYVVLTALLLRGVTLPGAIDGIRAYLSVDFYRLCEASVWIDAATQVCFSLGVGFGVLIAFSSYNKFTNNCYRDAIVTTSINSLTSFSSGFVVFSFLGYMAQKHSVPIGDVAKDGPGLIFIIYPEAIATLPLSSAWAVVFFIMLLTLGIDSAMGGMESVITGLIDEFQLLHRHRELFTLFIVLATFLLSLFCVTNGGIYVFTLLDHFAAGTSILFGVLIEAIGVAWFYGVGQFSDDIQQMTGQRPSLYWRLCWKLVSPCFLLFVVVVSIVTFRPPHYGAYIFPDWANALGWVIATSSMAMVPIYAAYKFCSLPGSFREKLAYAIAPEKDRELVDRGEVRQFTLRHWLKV
MT1 (ML1A) (h), sequence (P48039 whole entry): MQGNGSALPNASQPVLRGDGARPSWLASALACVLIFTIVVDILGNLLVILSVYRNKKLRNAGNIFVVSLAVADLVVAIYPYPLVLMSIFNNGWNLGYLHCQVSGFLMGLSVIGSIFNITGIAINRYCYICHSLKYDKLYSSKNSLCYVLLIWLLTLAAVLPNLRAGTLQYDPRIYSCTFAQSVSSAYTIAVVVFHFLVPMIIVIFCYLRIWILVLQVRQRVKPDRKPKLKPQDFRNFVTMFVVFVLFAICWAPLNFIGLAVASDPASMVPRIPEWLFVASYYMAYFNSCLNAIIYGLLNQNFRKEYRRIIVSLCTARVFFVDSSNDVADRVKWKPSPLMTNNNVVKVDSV
NK2 (h), sequence (P21452 whole entry): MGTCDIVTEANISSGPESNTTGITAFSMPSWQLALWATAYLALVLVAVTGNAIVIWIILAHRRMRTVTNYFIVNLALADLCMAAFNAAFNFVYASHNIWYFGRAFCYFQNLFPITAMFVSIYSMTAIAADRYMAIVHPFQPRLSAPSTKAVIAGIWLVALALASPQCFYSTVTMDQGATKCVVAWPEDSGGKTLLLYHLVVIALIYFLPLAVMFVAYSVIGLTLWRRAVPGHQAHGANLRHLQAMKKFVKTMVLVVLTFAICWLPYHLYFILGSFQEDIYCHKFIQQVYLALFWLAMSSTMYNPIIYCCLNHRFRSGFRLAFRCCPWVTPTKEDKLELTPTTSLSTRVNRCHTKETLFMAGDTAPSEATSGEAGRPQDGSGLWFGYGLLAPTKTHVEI
EP4 (h), sequence (P35408 whole entry): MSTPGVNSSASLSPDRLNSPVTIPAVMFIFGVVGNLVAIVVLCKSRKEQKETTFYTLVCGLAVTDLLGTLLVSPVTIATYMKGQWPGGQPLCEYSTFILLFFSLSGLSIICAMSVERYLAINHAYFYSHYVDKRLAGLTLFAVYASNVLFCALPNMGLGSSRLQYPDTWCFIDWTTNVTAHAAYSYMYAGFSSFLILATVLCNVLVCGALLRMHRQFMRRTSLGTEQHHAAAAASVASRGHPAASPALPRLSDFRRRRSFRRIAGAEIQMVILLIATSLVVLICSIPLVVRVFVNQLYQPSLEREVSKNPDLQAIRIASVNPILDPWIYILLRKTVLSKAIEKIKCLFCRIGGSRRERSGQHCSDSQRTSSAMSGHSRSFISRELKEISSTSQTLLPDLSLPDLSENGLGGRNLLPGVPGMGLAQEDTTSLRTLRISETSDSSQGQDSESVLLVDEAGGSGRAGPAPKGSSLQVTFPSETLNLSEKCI
5-HT3 (h), sequence (P46098 24-478): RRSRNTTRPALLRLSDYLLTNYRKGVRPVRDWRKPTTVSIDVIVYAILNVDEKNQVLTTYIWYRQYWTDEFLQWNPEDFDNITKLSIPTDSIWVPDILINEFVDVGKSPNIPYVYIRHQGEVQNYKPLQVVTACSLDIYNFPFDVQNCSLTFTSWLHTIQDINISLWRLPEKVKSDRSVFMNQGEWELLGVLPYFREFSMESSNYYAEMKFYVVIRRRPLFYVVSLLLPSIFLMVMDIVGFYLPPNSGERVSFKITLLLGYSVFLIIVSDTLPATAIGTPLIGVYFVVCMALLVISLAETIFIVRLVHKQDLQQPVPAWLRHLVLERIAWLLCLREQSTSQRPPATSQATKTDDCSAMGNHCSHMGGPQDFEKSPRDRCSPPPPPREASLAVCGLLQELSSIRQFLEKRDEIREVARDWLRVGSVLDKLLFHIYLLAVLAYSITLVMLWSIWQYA
AT1 (h), sequence (P30556 whole entry): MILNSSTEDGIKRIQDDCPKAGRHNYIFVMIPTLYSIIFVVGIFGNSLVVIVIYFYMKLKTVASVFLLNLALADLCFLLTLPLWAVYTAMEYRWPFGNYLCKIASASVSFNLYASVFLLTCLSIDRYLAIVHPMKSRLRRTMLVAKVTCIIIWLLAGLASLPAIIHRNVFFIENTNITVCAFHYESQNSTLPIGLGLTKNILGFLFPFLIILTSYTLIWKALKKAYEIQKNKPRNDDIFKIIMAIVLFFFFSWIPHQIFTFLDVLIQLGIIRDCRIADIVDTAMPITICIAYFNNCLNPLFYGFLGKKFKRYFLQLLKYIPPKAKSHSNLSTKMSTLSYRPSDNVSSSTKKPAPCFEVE

CN1[C@@H]2CC[C@H]1C[C@@H](OC(=O)c1cc(Cl)cc(Cl)c1)C2 [MDL 72222]
nH Ref [1]: 0.8

IL-8
nH Ref [2]: 1.4

(+)butaclamol
nH Ref [3]: 1.0

CN1C(=O)CN=C(c2ccccc2)c2cc(Cl)ccc21 [diazepam]
nH Ref [4]: 1.1

COc1ccccc1CNCCCCCCNCCCCCCCCNCCCCCCNCc1ccccc1OC [methoctramine]
nH Ref [5]: 0.9

C[C@@H](NC(=O)[C@@H](N)Cc1ccc(O)cc1)C(=O)NCC(=O)N(C)[C@@H](Cc1ccccc1)C(=O)NCCO [DAMGO]
nH Ref [6]: 1.0

C[N+]1(C)CCC(OC(=O)C(c2ccccc2)c2ccccc2)CC1.[I-] [Compound 4-DAMP]
nH Ref [7]: 1.1

CC[C@H](NC(=O)c1c(C)c(-c2ccccc2)nc2ccccc12)c1ccccc1 [SB 222200]
nH Ref [8]: 0.9

NCCc1c[nH]c2ccc(O)cc12 [serotonin]
nH Ref [9]: 0.8 | nH Ref [10]: 0.9

COc1ccc2[nH]cc(CCNC(C)=O)c2c1 [melatonin]
nH Ref [11]: 0.9

CNCC(=O)N[C@@H](CCCN=C(N)N)C(=O)N[C@H](C(=O)N[C@@H](Cc1ccc(O)cc1)C(=O)N[C@H](C(=O)N[C@@H](Cc1cnc[nH]1)C(=O)N1CCC[C@H]1C(=O)N[C@@H](C)C(=O)O)C(C)C)C(C)C [saralasin]
nH Ref [12]: 0.6

CC(C)C[C@@H]1NC(=O)[C@H](C)NC(=O)[C@H]([C@@H](C)O)NC(=O)[C@H](CCC(=O)O)NC(=O)[C@@H]2CCCN2C(=O)[C@H](C)NC(=O)[C@H](CCCCN)NC(=O)[C@@H]2CSSC[C@@H](C(=O)N[C@@H](CCC(N)=O)C(=O)N[C@@H](CCC(N)=O)C(=O)N[C@@H](Cc3cnc[nH]3)C(N)=O)NC(=O)[C@H](CCCNC(=N)N)NC(=O)[C@H](CCCNC(=N)N)NC(=O)[C@H](C)NC(=O)[C@H](CSSC[C@H](N)C(=O)N[C@@H](CC(N)=O)C(=O)N2)NC1=O [apamin]
nH Ref [13]: 1.3

C=C(C)[C@@H]1[C@H]2OC(=O)[C@@H]1[C@]1(O)C[C@H]3O[C@]34C(=O)O[C@H]2[C@]14C [picrotoxinin]
nH Ref [14]: 0.9

N=C(N)NCCC[C@@H](N)C(=O)N[C@@H](CCCNC(=N)N)C(=O)N1CCC[C@H]1C(=O)N1C[C@H](O)C[C@H]1C(=O)NCC(=O)N[C@@H](Cc1ccccc1)C(=O)N[C@@H](CO)C(=O)N[C@H](Cc1ccccc1)C(=O)N[C@@H](Cc1ccccc1)C(=O)N[C@@H](CCCNC(=N)N)C(=O)O [NPC 567]
nH Ref [15]: 0.9

CCCCCCC(C)(C)c1ccc([C@@H]2C[C@H](O)CC[C@H]2CCCO)c(O)c1 [CP 55940]
nH Ref [16]: 0.8

COc1cccc(OC)c1-c1cc(C(=O)NC2(C(=O)O)C3CC4CC(C3)CC2C4)nn1-c1ccc(C(=O)N(C)CCCN(C)CCCN(C)C(=O)CCC(=O)NCCCOCCOCCOCCCNC(=O)CN2CCN(CC(=O)O)CCN(CC(=O)O)CCN(CC(=O)O)CC2)cc1C(C)C (stereo not shown) [(IIIb), 2-{[1-(4-{[3-({3-[(DOTA-Ttds)-methyl-amino]-propyl}-methyl-amino)-propyl]-methyl-carbamoyl}-2-isopropyl-phenyl)-5-(2,6-dimethoxy-phenyl)-1H-pyrazole-3-carbonyl]-amino}-adamantane-2-carboxylic acid]
IC50 [17]: 16.6 nM | IC50 [18]: 5.2 nM

somatostatin-14
nH Ref [19]: 0.8 | Ki ([19]; read-out: Ki Ref): 0.11 nM

COC(=O)[C@@H]1[C@H]2C[C@H]3c4[nH]c5ccccc5c4CCN3C[C@@H]2CC[C@@H]1O [yohimbine]
nH Ref [20]: 0.7

CNCCCN(C)CCCN(C)C(=O)c1ccc(-n2nc(C(=O)NC3(C(=O)O)C4CC5CC(C4)CC3C5)cc2-c2c(OC)cccc2OC)c(C(C)C)c1 (stereo not shown) [(III), 2-({5-(2,6-Dimethoxy-phenyl)-1-[2-isopropyl-4-(methyl-{3-[methyl-(3-methylamino-propyl)-amino]-propyl}-carbamoyl)-phenyl]-1H-pyrazole-3-carbonyl}-amino)-adamantane-2-carboxylic acid]
IC50 [17]: 7.54 nM | IC50 [18]: 0.87 nM

O=C(c1ccc(F)cc1)C1CCN(CCn2c(=O)[nH]c3ccccc3c2=O)CC1 [ketanserin]
nH Ref [21]: 1.0

COc1cc2nc(N3CCN(C(=O)c4ccco4)CC3)nc(N)c2cc1OC [prazosin]
nH Ref [22]: 1.2

COc1cc(CC(C)N)c(OC)cc1I (racemic) [(±)DOI]
nH Ref [23]: 1.0 | Ki ([23]; read-out: Ki Ref): 3.1 nM

alpha-dendrotoxin (QPRRKLCILHRNPGRCYDKIPAFYYNQKKKQCERFDWSGCGGNSNRFKTIEECRRTCIG)
nH Ref [24]: 1.7 | Ki ([24]; read-out: Ki Ref): 0.2 nM

CCCCC[C@H](O)/C=C/[C@H]1[C@H](O)CC(=O)[C@@H]1C/C=C\CCCC(=O)O [PGE2]
nH Ref [25]: 1.1

CN1CCc2cc(Cl)c(O)cc2[C@@H](c2ccccc2)C1 [SCH 23390]
nH Ref [26]: 0.9

COc1cccc(OC)c1-c1cc(C(=O)NC2(C(=O)O)C3CC4CC(C3)CC2C4)nn1-c1ccc(C(=O)N(CCCNC(=O)CCC(=O)NCCCOCCOCCOCCCNC(=O)CN2CCN(CC(=O)O)CCN(CC(=O)O)CCN(CC(=O)O)CC2)CCCN(C)C)cc1C(C)C (stereo not shown) [(Vb), 2-{[5-(2,6-Dimethoxy-phenyl)-1-(4-{(3-dimethylamino-propyl)-[3-(DOTA-Ttds-amino)-propyl]-carbamoyl}-2-isopropyl-phenyl)-1H-pyrazole-3-carbonyl]-amino}-adamantane-2-carboxylic]
IC50 [17]: 26 nM | IC50 [18]: 2.4 nM

c1ccc2sc(C3(N4CCCCC4)CCCCC3)cc2c1 [BTCP]
nH Ref [27]: 1.0

NCCCC(=O)O [GABA, γ-aminobutyric acid, reference compound]
nH Ref [28]: 0.8

CCCC[C@H](NC(=O)[C@H](CC(C)C)NC(=O)CNC(=O)[C@@H](NC(=O)[C@H](Cc1ccccc1)NC(=O)[C@H](CO)NC(=O)[C@@H](N)CC(=O)O)C(C)C)C(N)=O [[Nleu10]-NKA (4-10)]
nH Ref [29]: 0.8

CC(C)NCC(O)COc1ccc(CC(N)=O)cc1 (stereo not shown) [atenolol]
nH Ref [30]: 0.9
